Assay results reported in patent publication US11325908B2, “CaMKII inhibitors and uses thereof” (The Johns Hopkins University, priority 2014, dated 2022).

Target: CaMKIIδ (Homo sapiens (Human), UniProt Q13557)
Assay: In vitro CaMKIIδ activity assay (coupled assay measuring ADP released, AC3 peptide substrate)
Format: biochemical
Conditions: full length C-terminal His/Gln tagged CaMKIIδ construct, 16 nM enzyme, 25° C., compound 0.5 nM to 10 uM, duplicate
Procedure: An exemplary procedure for the in vitro CaMKIIδ inhibition assay, which can be used to determine the inhibitory action of compounds of the invention toward CaMKII, follows. The procedure is taken from Chao L H, et al., (2010) Nat Struct Mol Biol. 17(3): 264-272, which is incorporated herein by reference in its entirety.
The inhibition of CaMKII activity was evaluated using a coupled assay measuring ADP released following ATP hydrolysis and phosphor-transfer to the peptide substrate AC3 (KKALHRQETVDAL; SEQ ID NO: 1) (1). A full length, C-terminal His/Gln tagged CaMKIIδ construct was used (sequence in Table 3 below).
Compounds were added in 5 uL volume to wells in UV transparent 96-well plates (1/2 area well size). The final compound concentrations tested ranged from 0.5 nM to 10 uM). Assays were performed in duplicate. CaMKIIδ is added to at a final concentration of 16 nM to a mixture containing 100 mM Tris (pH 7.5), 150 mM KCl, 0.27 mM EGTA, 1.3 mM PEP, 0.2 mg/ml AC3, 6.9% (v/v) PK/LDH mixture (Sigma P0294), 0.38 mM NADH and kept on ice. 72 uL of the enzyme mixture was added to the wells containing compounds and the plate was shaken briefly and kept on ice. The assay was initiated by adding 23 uL of a mixture containing 100 mM Tris (pH 7.5), 150 mM KCl, 1.7 mM CaCl2, 48 mM MgCl2, 0.35 mM ATP and 6.7 ug/mL calmodulin. The rate of ADP released was measured as the rate of absorbance decrease at […] at 25° C. and plotted against the log of the compound concentration (FIG. 1). IC50 data were fitted using GraphPad Prism software.

Row | SMILES | IC50 [nM]
1 | c1cc(-c2ccnc3[nH]c4ccccc4c23)cc(N2CCNCC2)c1 [Compound I-1, 4-(3-(piperazin-1-yl)phenyl)-9H-pyrido[2,3-b]indole] | 50 to 250
2 | N=C(N)Nc1cccc(-c2ccnc3[nH]c4ccccc4c23)c1 [Compound I-4] | 50 to 250
3 | Nc1cccc(-c2ccnc3[nH]c4ccccc4c23)c1 [Compound I-6] | 50 to 250
4 | N=C(N)NCc1cccc(-c2ccnc3[nH]c4ccccc4c23)c1 [Compound I-5] | 250 to 1000
